Source: paper PMC8353353, “Assessing reversible and irreversible binding effects of kinase covalent inhibitors through ADP-Glo assays” (STAR Protocols, 2021)

Key:
MKK7 [1] = target: T1, MKK7 (Homo sapiens, UniProt O14733, S271D/T275D); test: ADP-Glo assay with kinase-inhibitor pre-incubation step (phosphorylation of cov-JNK3 substrate by MKK7); format: biochemical; conditions: for luminescence intensity: raw data; for Normalized Intensity (%): normalized to Control DMSO only and Control No kinase
T1 construct: Recombinant MKK7 (full-length, S287D/T291D); made in house
T1 sequence (O14733 1-435 isoform O14733-3 S287D/T291D): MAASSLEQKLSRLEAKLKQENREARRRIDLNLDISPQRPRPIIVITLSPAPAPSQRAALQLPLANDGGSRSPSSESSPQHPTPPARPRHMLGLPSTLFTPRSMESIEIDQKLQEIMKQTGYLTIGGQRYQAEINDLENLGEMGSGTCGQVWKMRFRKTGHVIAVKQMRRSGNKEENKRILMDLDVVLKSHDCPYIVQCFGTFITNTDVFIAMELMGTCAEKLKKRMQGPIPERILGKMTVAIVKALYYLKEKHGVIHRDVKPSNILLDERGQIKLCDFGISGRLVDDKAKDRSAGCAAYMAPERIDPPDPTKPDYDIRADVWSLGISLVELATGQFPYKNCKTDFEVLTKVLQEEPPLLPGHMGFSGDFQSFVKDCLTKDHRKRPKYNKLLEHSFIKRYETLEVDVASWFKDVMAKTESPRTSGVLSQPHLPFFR
Experimental: The protocol described here uses Echo® 550 liquid handler. However, when performing with manual pipetting, adjusting pipetting volume of each component of the kinase reaction is required with an example provided in the above table. We had performed the following protocol using both pipetting methods, and observed similar assay quality with an example shown in Figure 3.
This part of the protocol describes a variation of the ADP-Glo^TM assay that includes a pre-incubation step between the tested inhibitors and MKK7 prior to an addition of ATP (Figure 4). […] Thus, apparent greater inhibitory potencies would be expected. The protocol below describes an experiment testing three inhibitors using fixed concentrations of 25 nM for MKK7 kinase, 30 μM for cov-JNK3 substrate and 100 μM for ATP with the layout of the assay plate shown in Figure 5. • 1. Thaw ADP-Glo^TM assay reagents. Place 10 mM ultra-pure ATP immediately on ice, while the other reagents can be kept at 22°C–25°C. • 2. Quick thaw MKK7 kinase and 10× cov-JNK3 substrate and spin both using benchtop centrifuge at high speed at 4°C for 10 min. Transfer clear supernatant into a new tube and keep on ice. • 3. Prepare 75 μL of 10× MKK7 kinase solution by diluting MKK7 to 250 nM in protein storage buffer. Keep the solution on ice until further use. • 4. Prepare the following mixtures and keep them on ice until further use. • a. Mixture 1: one part of 10× MKK7 kinase solution, one part of 10× cov-JNK3 substrate and eight part of the reaction buffer. For example, 500 μL of Mixture 1 contains 50 μL of 10× MKK7 kinase solution, 50 μL of 10× cov-JNK3 substrate and […] of the reaction buffer. This 500-μL Mixture 1 is adequate for approximately 100 reactions and will be used for the reactions containing inhibitors and the “Control DMSO only” wells (see Figure 5). • b. Mixture 2: one part of protein storage buffer, one part of 10× cov-JNK3 substrate and eight part of the reaction buffer. For example, 50 μL of Mixture 2 is made from 5 μL of protein storage buffer, 5 μL of 10× cov-JNK3 substrate and 45 μL of the reaction buffer. This 50-μL Mixture 2 is adequate for 10 reactions and is for the “Control No kinase” wells (see Figure 5). • c. Mixture 3: one part of 10× MKK7 kinase solution, one part of protein storage buffer and eight part of the reaction buffer. For example, 50 μL of Mixture 3 is made from 5 μL of 10× MKK7 kinase solution, 5 μL of protein storage buffer and 45 μL of reaction buffer. This 50-μL Mixture 3 is adequate for 10 reactions and is for the “Control No substrate” wells (see Figure 5) • 5. Prepare a serial dilution of inhibitors in a 384-well assay plate using the “Dose response” setting in Echo®550 acoustic liquid handler according to the manufacture’s manual. For this experiment, the dilution series of three inhibitors at 11 concentrations is prepared by the following steps (see also Figure 5 and Data S1 for an example input for Echo® dose response pipetting): • a. Prepare 5 mM inhibitor stock solutions in DMSO and transfer 25 μL of each into three different wells of an Echo® source plate. Fill the 4th well with 30 μL DMSO. • b. Use the “Dose response” program in Echo® 550 liquid handler with a DMSO backfill option to aliquot the correct volumes of the inhibitors and DMSO into each reaction wells in the assay plate according to the plate layout in Figure 5. Note that two intermediate compound dilutions will be created by the ECHO® dose response program (see Data S1 for an example input for Echo® dose response pipetting). 50 nL of DMSO should be transferred to each control well to ensure homogeneous assay conditions. The total transfer volume of 50 nL of either inhibitor alone, inhibitor plus DMSO or DMSO alone is fixed to ensure constant 1% final DMSO concentration (see Data S1 for an example input for Echo® dose response pipetting). • 6. […]

MKK7 [2] = target: T1, MKK7; design: method as in Schröder et al., 2020; conditions: with vs without kinase-inhibitor pre-incubation; Figure 6; ref Schröder et al., 2020; cited from earlier work
[3] = [Inhibitor] 1.49E-05 M (log -4.83)
[4] = [Inhibitor] 1.65E-08 M (log -7.78)
[5] = [Inhibitor] 1.65E-09 M (log -8.78)
[6] = [Inhibitor] 2.43E-10 M (log -9.62)
[7] = [Inhibitor] 2.91E-07 M (log -6.54)
[8] = [Inhibitor] 4.95E-05 M (log -4.31)
[9] = [Inhibitor] 4.95E-06 M (log -5.31)
[10] = [Inhibitor] 4.95E-09 M (log -8.31)
[11] = [Inhibitor] 8.08E-10 M (log -9.09)
[12] = [Inhibitor] 8.08E-11 M (log -10.09)
[13] = [Inhibitor] 9.71E-07 M (log -6.01)
[14] = [Inhibitor] 9.71E-08 M (log -7.01)

Question: What does the source list for `C=CC(=O)N1CCC[C@@H](n2nc(-c3ccc(Oc4ccccc4)cc3)c3c(N)ncnc32)C1` [Ibrutinib]?
Answer: luminescence intensity (MKK7 [1]; [3]): 18884; luminescence intensity (MKK7 [1]; [4]): 157972; luminescence intensity (MKK7 [1]; [5]): 195602; luminescence intensity (MKK7 [1]; [6]): 176476; luminescence intensity (MKK7 [1]; [7]): 49318; luminescence intensity (MKK7 [1]; [8]): 52382; luminescence intensity (MKK7 [1]; [9]): 64212; luminescence intensity (MKK7 [1]; [10]): 138435; luminescence intensity (MKK7 [1]; [11]): 152383; luminescence intensity (MKK7 [1]; [12]): 159956; luminescence intensity (MKK7 [1]; [13]): 22472; luminescence intensity (MKK7 [1]; [14]): 121319; Normalized Intensity (%) (MKK7 [1]; log[Inhibitor] -4.31): 17.05%; Normalized Intensity (%) (MKK7 [1]; log[Inhibitor] -4.83): -1.74%; Normalized Intensity (%) (MKK7 [1]; log[Inhibitor] -5.31): 23.69%; Normalized Intensity (%) (MKK7 [1]; log[Inhibitor] -6.01): 0.27%; Normalized Intensity (%) (MKK7 [1]; log[Inhibitor] -6.54): 15.33%; Normalized Intensity (%) (MKK7 [1]; log[Inhibitor] -7.01): 55.73%; Normalized Intensity (%) (MKK7 [1]; log[Inhibitor] -7.78): 76.30%; Normalized Intensity (%) (MKK7 [1]; log[Inhibitor] -8.31): 65.34%; Normalized Intensity (%) (MKK7 [1]; log[Inhibitor] -8.78): 97.41%; Normalized Intensity (%) (MKK7 [1]; log[Inhibitor] -9.09): 73.16%; Normalized Intensity (%) (MKK7 [1]; log[Inhibitor] -9.62): 86.68%; Normalized Intensity (%) (MKK7 [1]; log[Inhibitor] -10.09): 77.41%

Question: With `CC(=O)c1cnc2ccc(-c3cc(Cl)c(O)c(Cl)c3)nc2c1N[C@H]1CC[C@H](CN(C)C)CC1` [OTSSP167] as the molecule, how does the luminescence intensity (MKK7 [1]; [3]) read?
Answer: 50306

Question: And the luminescence intensity (MKK7 [1]; [4])?
Answer: 167511

Question: And the luminescence intensity (MKK7 [1]; [5])?
Answer: 188762

Question: And the luminescence intensity (MKK7 [1]; [6])?
Answer: 186492

Question: And the luminescence intensity (MKK7 [1]; [7])?
Answer: 53403

Question: And the luminescence intensity (MKK7 [1]; [8])?
Answer: 62181

Question: What about the luminescence intensity (MKK7 [1]; [9]) of the same molecule?
Answer: 22921

Question: What about the luminescence intensity (MKK7 [1]; [10]) of the same molecule?
Answer: 186941

Question: And the luminescence intensity (MKK7 [1]; [11])?
Answer: 193825

Question: And the luminescence intensity (MKK7 [1]; [12])?
Answer: 208349

Question: And the luminescence intensity (MKK7 [1]; [13])?
Answer: 43374

Question: What about the luminescence intensity (MKK7 [1]; [14]) of the same molecule?
Answer: 94669

Question: What about the “Normalized Intensity (%)” value (MKK7 [1]; log[Inhibitor] -4.31) of the same molecule?
Answer: 22.55%

Question: And the “Normalized Intensity (%)” value (MKK7 [1]; log[Inhibitor] -4.83)?
Answer: 15.89%

Question: What about the “Normalized Intensity (%)” value (MKK7 [1]; log[Inhibitor] -5.31) of the same molecule?
Answer: 0.52%

Question: What about the “Normalized Intensity (%)” value (MKK7 [1]; log[Inhibitor] -6.01) of the same molecule?
Answer: 12.00%

Question: What about the “Normalized Intensity (%)” value (MKK7 [1]; log[Inhibitor] -6.54) of the same molecule?
Answer: 17.63%

Question: And the “Normalized Intensity (%)” value (MKK7 [1]; log[Inhibitor] -7.01)?
Answer: 40.78%

Question: What about the “Normalized Intensity (%)” value (MKK7 [1]; log[Inhibitor] -7.78) of the same molecule?
Answer: 81.65%

Question: And the “Normalized Intensity (%)” value (MKK7 [1]; log[Inhibitor] -8.31)?
Answer: 92.55%

Question: And the “Normalized Intensity (%)” value (MKK7 [1]; log[Inhibitor] -8.78)?
Answer: 93.57%

Question: What about the “Normalized Intensity (%)” value (MKK7 [1]; log[Inhibitor] -9.09) of the same molecule?
Answer: 96.42%

Question: What about the “Normalized Intensity (%)” value (MKK7 [1]; log[Inhibitor] -9.62) of the same molecule?
Answer: 92.30%

Question: What about the “Normalized Intensity (%)” value (MKK7 [1]; log[Inhibitor] -10.09) of the same molecule?
Answer: 104.56%

Question: And the “shift of inhibitory potencies (IC50) between the two assay variants” value (MKK7 [2])?
Answer: less pronounced
